A word on the IC50: it is the concentration that inhibits the measured activity by half. Lower therefore signals greater potency in that assay.

The structures appear in SMILES notation. A value given as a limit tells only on which side of the number the result lay.

This assay concerns the target Glucose-6-phosphatase catalytic subunit (Sus scrofa). Briefly: Compound was evaluated for inhibition of Glucose-6-Phosphatase from Triton X-100 disrupted pig liver microsomes. A general note: Liver microsomes are a subcellular fraction often used to study metabolism.
Molecule `Oc1ccc(/C=N/N(Cc2ccccc2)Cc2ccccc2)cc1` [4-(Dibenzyl-hydrazonomethyl)-phenol] showed an IC50 of 2400 nM.

As to `COc1ccccc1/C=N/N(Cc1ccccc1)Cc1ccccc1` [N,N-Dibenzyl-N'-[1-(2-methoxy-phenyl)-meth-(E)-ylidene]-hydrazine], the IC50 is over 100000 nM.

`Clc1ccc(/C=N/N(Cc2ccccc2)Cc2ccccc2)cc1Cl` [N,N-Dibenzyl-N'-[1-(3,4-dichloro-phenyl)-meth-(E)-ylidene]-hydrazine] gave an IC50 of 2000 nM.

For the molecule `Clc1cc(Cl)cc(/C=N/N(Cc2ccccc2)Cc2ccccc2)c1` [N,N-Dibenzyl-N'-[1-(3,5-dichloro-phenyl)-meth-(E)-ylidene]-hydrazine], the IC50 was over 100000 nM.

In the case of `Clc1ccc(/C=N/N(Cc2ccccc2)Cc2ccccc2)cc1` [N,N-Dibenzyl-N'-[1-(4-chloro-phenyl)-meth-(E)-ylidene]-hydrazine], inhibition was half-maximal at 240 nM (IC50).

As for `COc1ccc(/C=N/N(Cc2ccccc2)Cc2ccccc2)cc1` [N,N-Dibenzyl-N'-[1-(4-methoxy-phenyl)-meth-(E)-ylidene]-hydrazine], the IC50 is 220 nM.

For `Clc1ccc(/C=N/N(Cc2ccccc2)Cc2ccccc2)s1` [N,N-Dibenzyl-N'-[1-(5-chloro-thiophen-2-yl)-meth-(E)-ylidene]-hydrazine], the midpoint of inhibition, the IC50, lay at 170 nM.

In the case of `CCc1ccc(/C=N/N(Cc2ccccc2)Cc2ccccc2)o1` [N,N-Dibenzyl-N'-[1-(5-ethyl-furan-2-yl)-meth-(E)-ylidene]-hydrazine], the IC50 amounted to 330 nM.

With `C(=N\N(Cc1ccccc1)Cc1ccccc1)/c1ccco1` [N,N-Dibenzyl-N'-[1-furan-2-yl-meth-(E)-ylidene]-hydrazine], the IC50 turned out to be 1100 nM.

In turn, `C(=N\N(Cc1ccccc1)Cc1ccccc1)/c1ccccc1` [N,N-Dibenzyl-N'-[1-phenyl-meth-(E)-ylidene]-hydrazine] returned an IC50 of 1500 nM.

With `C(=N\N(Cc1ccccc1)Cc1ccccc1)/c1cccnc1` [N,N-Dibenzyl-N'-[1-pyridin-3-yl-meth-(E)-ylidene]-hydrazine], it took 3700 nM to reach half-maximal inhibition (IC50).

For `C(=N\N(Cc1ccccc1)Cc1ccccc1)/c1cccs1` [N,N-Dibenzyl-N'-[1-thiophen-2-yl-meth-(E)-ylidene]-hydrazine], 1500 nM corresponded to half-maximal inhibition (IC50).

`COc1ccc2c(c1)CCCC2=NN(Cc1ccccc1)Cc1ccccc1` [N,N-Dibenzyl-N'-[6-methoxy-3,4-dihydro-2H-naphthalen-(1E)-ylidene]-hydrazine] returned an IC50 of over 50000 nM.

Regarding `CN(C)c1ccc(/C=N/N(Cc2ccccc2)Cc2ccccc2)cc1` [[4-(Dibenzyl-hydrazonomethyl)-phenyl]-dimethyl-amine], the midpoint of inhibition, the IC50, lay at 100000 nM.

Molecule `OCc1ccc(/C=N/N(Cc2ccccc2)Cc2ccccc2)o1` [[5-(Dibenzyl-hydrazonomethyl)-furan-2-yl]-methanol] registered an IC50 of 16000 nM.

These data come from BindingDB's records for doi:10.1016/s0960-894x(01)00395-x (Novo Nordisk, 2001).
